Values of other authors as cited in patent US8981059B2, “Platelet aggregation inducing substance” (JNC Corporation, priority 2006, dated 2015).

Tested on: platelets
Conditions: as disclosed in the non-patent documents

-(Gly-Pro-Hyp)10- [polypeptide -(Gly-Pro-Hyp)10-]
platelet aggregation inducing activity: low
